Laboratory results reported in PMC12380353, “MK-8527 is a novel inhibitor of HIV-1 reverse transcriptase translocation with potential for extended-duration dosing” (PLOS Biology, 2025).
“And” between values parts separate entries of the source, which are not always exact repeats. Equal entries are not always repeated. Where two headings read alike, the source gives them in different places.

Experiments:
HIV-1IIIB = experiment: Cytoprotection assay in CEM-SS cells, HIV-1; assay type: cell-based; details: Human immunodeficiency virus 1, 144 h, 6 days, read-out: Antiviral potency as IC50, HIV-1 – CEM-SS cells
Description: The antiviral activity of MK-8527 against HIV-1 and HIV-2 was determined in a cytoprotection assay in CEM-SS cells at ImQuest BioSciences (Fredrick, MD, USA). Briefly, CEM-SS cells (National Institute of Health AIDS Research and Reference Reagent Program) were passaged in RPMI 1640 supplemented with 10% heat-inactivated FBS, 2 mM L-glutamine, 100 U/mL penicillin and 100 µg/mL streptomycin prior to use in the antiviral assay. On the day preceding the assay, the cells were split 1:2 to ensure they were in an exponential growth phase at the time of infection. The cells were resuspended at 2.5 × 10^3 cells per well in cell culture medium and added to the drug-containing microtiter plates at 50 µL per well. MK-8527 was tested in triplicate for each experiment, with 12 test concentrations added at 100 µL per well.
Lymphocyte-tropic virus strains HIV-1IIIB or HIV-2ROD (NIH AIDS Research and Reference Reagent Program) were diluted into tissue culture medium such that the amount of virus added to each well in a volume of […] corresponded to the amount determined to yield 85% to 95% cell killing in the untreated virus control wells at 6–7 days. Virus was added immediately after cells were added to the 96-well microtiter plates.
The IC50 for MK-8527 antiviral activity was determined using 4-parameter curve fit calculations.

[1] = test system: panel of 114 enzyme and receptor binding assays; experiment: Off-target panel of 114 enzyme and receptor-binding assays; details: for Off-target activity: 10 μM, panel of 114 assays; for IC50: tested at 10 µM, 114 assays, read-out: IC50 in all off-target assays
Description: MK-8527 and MK-8527-TP were evaluated at 10 µM final concentration at Eurofins Panlabs (Taipei, Taiwan) for activity against a panel of 114 enzyme, radioligand binding, and cellular assays, including 70 G-protein coupled receptor, 13 ion channel, 7 kinase, 7 nuclear hormone receptor, 6 transporter, 4 protease, 2 neurotransmitter metabolism, 2 lipid metabolism, 2 oxidoreductase, and 1 phosphodiesterase assays.

[2] = PK in rhesus monkeys (plasma); assay type: in vivo
Description: For the IV arm of the study, MK-8527 was administered as a bolus via the cephalic vein at 0.5 mg/kg in 30% Captisol (Ligand Pharmaceuticals, Lawrence, KS, USA). […] After the 6-h time point, they were returned to their cages and placed in a bleed chair for the subsequent time points. No anesthesia was used. As enrichment, animals were pair housed with conspecifics in cages with […]. […] Animals were fed certified primate diet (LabDiet 5048) and given a vitamin C supplement daily. In addition, animals received rotational fruit and vegetables as well as a foraging mix daily. All blood samples were centrifuged at 2,000g for 10 min, and the supernatant plasma samples were removed and stored at -70 °C until further analysis. The concentrations of MK-8527 in plasma were determined by LC-MS/MS assays following a protein precipitation step. Aliquots (50 μL) of plasma were precipitated by addition of 150 μL of acetonitrile solution-containing internal standard (IS), followed by centrifugation at 3,000 rpm for 10 min. A 75-μL aliquot of the supernatant was transferred into a 96-well plate, and 5 μL of each sample was used for analysis. LC-MS/MS analysis was performed on a Transcend LC system with HTS PAL CTC autosampler (Thermo Fisher Scientific, Waltham, MA, USA) interfaced to an API-5000 mass spectrometer using the turbo ion spray interface (Sciex, Framingham, MA, USA). Separation of MK-8527 was achieved on an Xselect HSS XP T3 column (50 × 2.1 mm, 2.5 μm; […] The chromatography for plasma samples was run using gradient elution as follows: the column was equilibrated with 100% A. […] The total run time was 4.15 min. Quantification was done by monitoring the transition of m/z 309 to m/z 169 or 133 for MK-8527. The method was linear across a concentration range of 2-10,000 ng/mL in plasma.

For `C#C[C@]1(CO)O[C@@H](n2ccc3c(N)nc(Cl)nc32)C[C@@H]1O` [Compound 12, (2R,3S,5R)-5-(4-amino-2-chloro-7H-pyrrolo[2,3-d]pyrimidin-7-yl)-2-ethynyl-2-(hydroxymethyl)tetrahydrofuran-3-ol], the IC50 (HIV-1IIIB) was 0.00014 µM, the Off-target activity [1] was “no off-target activities” and the IC50 [1] was > 10 µM. For the same compound, the concentration at 72 h ([2]; monkeys, oral 50 mg/kg, 0.25 hr, listed as MK-8527, 50 mg/kg, read-out: Concentration in plasma, individual subjects) was 7.22 µM and 1.93 µM and 8.67 µM, the concentration at 72 h ([2]; monkeys, oral 50 mg/kg, 0.5 hr, listed as MK-8527, 50 mg/kg, read-out: Concentration in plasma, individual subjects) was 11.00 µM and 4.12 µM and 11.10 µM and the concentration at 72 h ([2]; monkeys, oral 50 mg/kg, 1 hr, listed as MK-8527, 50 mg/kg, read-out: Concentration in plasma, individual subjects) was 29.80 µM and 7.40 µM and 20.20 µM. The concentration at 72 h ([2]; monkeys, oral 50 mg/kg, 2 hr, listed as MK-8527, 50 mg/kg, read-out: Concentration in plasma, individual subjects) was 30.50 µM and 11.00 µM and 27.80 µM, the concentration at 72 h ([2]; monkeys, oral 50 mg/kg, 4 hr, listed as MK-8527, 50 mg/kg, read-out: Concentration in plasma, individual subjects) was 15.20 µM and 15.40 µM and the concentration at 72 h ([2]; monkeys, oral 50 mg/kg, 6 hr, listed as MK-8527, 50 mg/kg, read-out: Concentration in plasma, individual subjects) was 14.30 µM and 9.31 µM. The concentration at 72 h ([2]; monkeys, oral 50 mg/kg, 24 hr, listed as MK-8527, 50 mg/kg, read-out: Concentration in plasma, individual subjects) was 1.81 µM and 1.27 µM, the concentration at 72 h ([2]; monkeys, oral 50 mg/kg, 30 hr, listed as MK-8527, 50 mg/kg, read-out: Concentration in plasma, individual subjects) was 0.81 µM and 0.58 µM and the concentration at 72 h ([2]; monkeys, oral 50 mg/kg, 48 hr, listed as MK-8527, 50 mg/kg, read-out: Concentration in plasma, individual subjects) was 0.31 µM and 0.26 µM and 0.13 µM. The concentration at 72 h ([2]; monkeys, oral 50 mg/kg, 72 hr, listed as MK-8527, 50 mg/kg, read-out: Concentration in plasma, individual subjects) was 0.07 µM and 0.05 µM, the concentration at 72 h ([2]; monkeys, oral 50 mg/kg, 168 hr, listed as MK-8527, 50 mg/kg, read-out: Concentration in plasma, individual subjects) was 0.0143 µM and 0.0113 µM and 0.00651 µM and the half-life ([2]; rhesus monkey, plasma, iv, 0.5 mg/kg, monkey, plasma, IV 0.5 mg/kg, read-out: t½ (converted)) was ~7 h. It also gave a concentration at 0.25 h ([2]; rhesus monkey, plasma, po, 50 mg/kg, monkeys, oral 50 mg/kg, 0.25 hr, read-out: Arithmetic Mean Concentration in plasma) of 4.94 µM, a concentration at 0.5 h ([2]; rhesus monkey, plasma, po, 50 mg/kg, monkeys, oral 50 mg/kg, 0.5 hr, read-out: Arithmetic Mean Concentration in plasma) of 7.95 µM and a concentration at 1 h ([2]; rhesus monkey, plasma, po, 50 mg/kg, monkeys, oral 50 mg/kg, 1 hr, read-out: Arithmetic Mean Concentration in plasma) of 16.4 µM. The concentration at 30 h ([2]; rhesus monkey, plasma, po, 50 mg/kg, monkeys, oral 50 mg/kg, 30 hr, read-out: Arithmetic Mean Concentration in plasma) was 0.79 µM, the concentration at 30 h ([2]; rhesus monkey, plasma, po, 50 mg/kg, monkeys, oral 50 mg/kg, 30 hr, read-out: Concentration in plasma, individual subjects) was 1.04 µM and the concentration at 48 h ([2]; rhesus monkey, plasma, po, 50 mg/kg, monkeys, oral 50 mg/kg, 48 hr, read-out: Arithmetic Mean Concentration in plasma) was 0.22 µM. It also gave a concentration at 72 h ([2]; rhesus monkey, plasma, po, 50 mg/kg, monkeys, oral 50 mg/kg, 72 hr, read-out: Arithmetic Mean Concentration in plasma) of 0.07 µM, a concentration at 72 h ([2]; rhesus monkey, plasma, po, 50 mg/kg, monkeys, oral 50 mg/kg, 72 hr, read-out: Concentration in plasma, individual subjects) of 0.09 µM and a concentration at 168 h ([2]; rhesus monkey, plasma, po, 50 mg/kg, monkeys, oral 50 mg/kg, 168 hr, read-out: Arithmetic Mean Concentration in plasma) of 0.01 µM. For the same compound, the clearance ([2]; rhesus monkey, plasma, monkey, IV 0.5 mg/kg, read-out: CLp) was 12.6 ± 3.3 mL/min/kg, the Vd ([2]; rhesus monkey, plasma, monkey, IV 0.5 mg/kg, read-out: Vdss) was 4.4 ± 0.8 L/kg and the bioavailability ([2]; rhesus monkey, plasma, monkey, oral 1 mg/kg) was 100%. For the same compound, the concentration at 2 h ([2]; rhesus, rhesus monkey, plasma, po, 50 mg/kg, monkeys, oral 50 mg/kg, 2 hr, read-out: Arithmetic Mean Concentration in plasma) was 21.1 µM, the concentration at 4 h ([2]; rhesus, rhesus monkey, plasma, po, 50 mg/kg, monkeys, oral 50 mg/kg, 4 hr, read-out: Arithmetic Mean Concentration in plasma) was 15.8 µM and the concentration at 4 h ([2]; rhesus, rhesus monkey, plasma, po, 50 mg/kg, monkeys, oral 50 mg/kg, 4 hr, read-out: Concentration in plasma, individual subjects) was 16.9 µM. For the same compound, the concentration at 6 h ([2]; rhesus, rhesus monkey, plasma, po, 50 mg/kg, monkeys, oral 50 mg/kg, 6 hr, read-out: Arithmetic Mean Concentration in plasma) was 11 µM, the concentration at 6 h ([2]; rhesus, rhesus monkey, plasma, po, 50 mg/kg, monkeys, oral 50 mg/kg, 6 hr, read-out: Concentration in plasma, individual subjects) was 10.1 µM and the concentration at 24 h ([2]; rhesus, rhesus monkey, plasma, po, 50 mg/kg, monkeys, oral 50 mg/kg, 24 hr, read-out: Arithmetic Mean Concentration in plasma) was 1.75 µM. It also gave a concentration at 24 h ([2]; rhesus, rhesus monkey, plasma, po, 50 mg/kg, monkeys, oral 50 mg/kg, 24 hr, read-out: Concentration in plasma, individual subjects) of 2.34 µM.

With `C#C[C@]1(COP(=O)(O)OP(=O)(O)OP(=O)(O)O)O[C@@H](n2ccc3c(N)nc(Cl)nc32)C[C@@H]1O` [MK-8527-TP] the Off-target activity [1] was “no off-target activities” and the IC50 [1] was > 10 µM.
